Data reported in patent US8415469B2, “Compounds and methods for kinase modulation, and indications therefor” (Plexxikon Inc., priority 2005, dated 2013).

Tests used:
Assay type in all cases: biochemical
Abl = biological target: T1, Abl (Homo sapiens, UniProt P00519); assay: AlphaScreen kinase assay, Abl; conditions: read-out: activity toward kinase Abl, IC50
T1 construct: P1121. pET-SPEC BI-PTP Abl G227-V515-X; His6 (N); made in house; host or cells: E. coli (PTP1B co-expressed)
T1 sequence (P00519 with tags, fused parts or gaps): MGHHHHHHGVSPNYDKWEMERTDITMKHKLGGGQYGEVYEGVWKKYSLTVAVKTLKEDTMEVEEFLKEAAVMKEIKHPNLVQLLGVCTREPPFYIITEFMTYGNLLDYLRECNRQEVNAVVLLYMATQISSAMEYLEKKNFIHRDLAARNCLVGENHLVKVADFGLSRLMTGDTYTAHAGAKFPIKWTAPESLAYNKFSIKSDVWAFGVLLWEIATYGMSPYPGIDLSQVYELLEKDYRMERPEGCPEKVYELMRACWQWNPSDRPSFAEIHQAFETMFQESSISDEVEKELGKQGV
From the text: AlphaScreen assay was used to screen additional kinases. The assay is similarly dependent on the phosphorylation of a peptide substrate. In this assay, an antibody that recognizes phosphorylated substrate is bound to an acceptor bead. The peptide substrate is attached to biotin, which binds to a donor head that contains streptavidin. Thus phosphorylated substrate is bound by antibody and streptavidin, bringing the donor and acceptor heads into close proximity when kinase is not inhibited. The donor produces singlet oxygen which results in emission from the acceptor when they are in close proximity. Conversely, when kinase is inhibited, the donor and acceptor beads are not associated and the emission from the acceptor is reduced.
AlphaScreen assays were done using compounds dissolved in DMSO to a concentration of 20 mM. The compounds were diluted accordingly to the desired final concentrations in each sample well, using 1:3 serial dilution for a total of 8 concentration points.

B-Raf V600E = biological target: T2, B-Raf V600E (Homo sapiens, UniProt P15056, V600E); assay: AlphaScreen kinase assay, B-Raf V600E; conditions: read-out: IC50, activity toward kinase B-Raf V600E
T2 construct: P4254. pFastBacBD-CDC37 BRAF D437-K722-X, V600E; His6 with pFastBac HT leader (TEV site) (N); made in house; host or cells: Sf9 (baculovirus; chaperone CDC37 co-expressed)
T2 sequence (P15056 with tags, fused parts or gaps V600E): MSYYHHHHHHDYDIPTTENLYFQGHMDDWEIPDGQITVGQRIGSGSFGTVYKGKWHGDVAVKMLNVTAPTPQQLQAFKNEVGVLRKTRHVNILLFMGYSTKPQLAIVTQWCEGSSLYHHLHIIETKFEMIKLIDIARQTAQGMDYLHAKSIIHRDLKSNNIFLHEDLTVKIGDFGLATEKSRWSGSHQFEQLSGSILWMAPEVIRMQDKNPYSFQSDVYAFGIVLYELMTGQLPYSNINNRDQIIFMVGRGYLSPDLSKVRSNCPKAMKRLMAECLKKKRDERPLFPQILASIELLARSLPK

Met = biological target: T3, Met (Homo sapiens, UniProt P08581); assay: AlphaScreen kinase assay, Met; conditions: read-out: IC50, activity toward kinase Met
T3 construct: P1818.pETN6 BI-PTP MET G1056-G1364-X WT; His6 (N); made in house; host or cells: E. coli (PTP1B co-expressed)
T3 sequence (P08581 with tags, fused parts or gaps): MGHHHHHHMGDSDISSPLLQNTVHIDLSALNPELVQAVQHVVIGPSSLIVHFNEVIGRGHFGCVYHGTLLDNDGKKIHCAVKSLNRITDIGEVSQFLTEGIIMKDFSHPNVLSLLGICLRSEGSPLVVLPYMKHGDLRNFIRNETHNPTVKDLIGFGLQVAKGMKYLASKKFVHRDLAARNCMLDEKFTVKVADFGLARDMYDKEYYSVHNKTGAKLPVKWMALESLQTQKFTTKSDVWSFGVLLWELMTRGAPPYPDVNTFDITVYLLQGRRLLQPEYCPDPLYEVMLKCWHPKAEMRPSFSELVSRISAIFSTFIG
Method in brief: (§1)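 Biotinylated peptide substrate phosphorylation detected by AlphaScreen with phospho-specific antibody acceptor beads and streptavidin donor beads. Compounds tested as 8-point 1:3 serial dilutions from 20 mM DMSO stocks.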

Src = biological target: T4, Src (Homo sapiens, UniProt P12931); assay: AlphaScreen kinase assay, Src; conditions: read-out: IC50, activity toward kinase Src
T4 construct: P1144. pET-N6 BI-PTP SRC V86-L536-X; made in house
T4 sequence (P12931 with tags, fused parts or gaps): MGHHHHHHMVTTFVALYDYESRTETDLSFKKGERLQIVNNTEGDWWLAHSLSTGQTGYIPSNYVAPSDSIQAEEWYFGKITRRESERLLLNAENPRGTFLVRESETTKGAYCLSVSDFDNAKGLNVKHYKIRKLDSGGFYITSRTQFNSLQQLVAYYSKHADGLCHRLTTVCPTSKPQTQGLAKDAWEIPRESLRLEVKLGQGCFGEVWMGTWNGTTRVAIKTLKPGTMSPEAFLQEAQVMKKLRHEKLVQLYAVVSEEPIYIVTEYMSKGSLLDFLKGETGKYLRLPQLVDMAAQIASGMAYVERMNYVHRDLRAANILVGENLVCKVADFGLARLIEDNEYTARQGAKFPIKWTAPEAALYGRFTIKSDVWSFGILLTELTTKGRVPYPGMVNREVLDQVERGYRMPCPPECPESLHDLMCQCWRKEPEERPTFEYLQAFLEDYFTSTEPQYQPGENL

Kdr = biological target: T5, Kdr (Homo sapiens, UniProt P35968); assay: Z'-Lyte FRET kinase assay (Invitrogen), Kdr; conditions: read-out: IC50, activity toward kinase Kdr
T5 construct: purchased Invitrogen (assay run by Invitrogen)
T5 sequence (P35968 20-1356): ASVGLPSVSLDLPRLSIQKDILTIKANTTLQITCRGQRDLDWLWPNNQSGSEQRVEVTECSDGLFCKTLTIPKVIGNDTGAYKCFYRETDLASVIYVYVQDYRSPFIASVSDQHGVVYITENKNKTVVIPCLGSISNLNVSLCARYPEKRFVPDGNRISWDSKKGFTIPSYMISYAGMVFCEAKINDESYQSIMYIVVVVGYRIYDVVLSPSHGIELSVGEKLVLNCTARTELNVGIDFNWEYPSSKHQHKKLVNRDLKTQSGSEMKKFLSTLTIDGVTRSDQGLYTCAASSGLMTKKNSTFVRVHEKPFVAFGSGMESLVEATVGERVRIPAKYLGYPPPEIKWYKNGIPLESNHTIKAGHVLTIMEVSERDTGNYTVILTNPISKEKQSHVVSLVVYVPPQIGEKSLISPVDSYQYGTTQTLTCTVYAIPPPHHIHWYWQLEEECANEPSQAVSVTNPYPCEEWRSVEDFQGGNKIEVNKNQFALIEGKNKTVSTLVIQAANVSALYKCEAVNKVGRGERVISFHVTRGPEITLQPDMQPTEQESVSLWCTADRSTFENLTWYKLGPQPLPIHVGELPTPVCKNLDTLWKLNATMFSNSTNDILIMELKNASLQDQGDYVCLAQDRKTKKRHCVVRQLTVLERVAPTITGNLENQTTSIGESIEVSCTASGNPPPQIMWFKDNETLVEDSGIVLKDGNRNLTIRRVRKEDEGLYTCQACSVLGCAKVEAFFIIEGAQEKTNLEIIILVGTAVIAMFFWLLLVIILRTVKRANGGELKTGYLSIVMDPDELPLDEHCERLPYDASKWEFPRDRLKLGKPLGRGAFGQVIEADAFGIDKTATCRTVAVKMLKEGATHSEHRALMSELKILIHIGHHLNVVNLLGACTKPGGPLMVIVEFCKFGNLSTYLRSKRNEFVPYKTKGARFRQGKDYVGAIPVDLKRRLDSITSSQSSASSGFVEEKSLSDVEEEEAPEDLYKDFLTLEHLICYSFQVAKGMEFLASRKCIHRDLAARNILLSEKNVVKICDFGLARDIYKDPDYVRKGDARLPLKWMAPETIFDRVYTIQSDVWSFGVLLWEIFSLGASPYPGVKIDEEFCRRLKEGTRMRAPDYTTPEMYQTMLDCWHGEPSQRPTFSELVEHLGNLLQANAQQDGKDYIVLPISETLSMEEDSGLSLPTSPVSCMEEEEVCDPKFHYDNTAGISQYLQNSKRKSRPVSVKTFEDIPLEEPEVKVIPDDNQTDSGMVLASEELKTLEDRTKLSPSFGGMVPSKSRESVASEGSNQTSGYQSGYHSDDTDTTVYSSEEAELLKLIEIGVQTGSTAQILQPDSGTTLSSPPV

Pyk2 = biological target: T6, Pyk2 (Homo sapiens, UniProt Q14289); assay: AlphaScreen kinase assay, Pyk2; conditions: read-out: IC50, activity toward kinase Pyk2
T6 construct: purchased Upstate Biotechnology
T6 sequence (Q14289 whole entry): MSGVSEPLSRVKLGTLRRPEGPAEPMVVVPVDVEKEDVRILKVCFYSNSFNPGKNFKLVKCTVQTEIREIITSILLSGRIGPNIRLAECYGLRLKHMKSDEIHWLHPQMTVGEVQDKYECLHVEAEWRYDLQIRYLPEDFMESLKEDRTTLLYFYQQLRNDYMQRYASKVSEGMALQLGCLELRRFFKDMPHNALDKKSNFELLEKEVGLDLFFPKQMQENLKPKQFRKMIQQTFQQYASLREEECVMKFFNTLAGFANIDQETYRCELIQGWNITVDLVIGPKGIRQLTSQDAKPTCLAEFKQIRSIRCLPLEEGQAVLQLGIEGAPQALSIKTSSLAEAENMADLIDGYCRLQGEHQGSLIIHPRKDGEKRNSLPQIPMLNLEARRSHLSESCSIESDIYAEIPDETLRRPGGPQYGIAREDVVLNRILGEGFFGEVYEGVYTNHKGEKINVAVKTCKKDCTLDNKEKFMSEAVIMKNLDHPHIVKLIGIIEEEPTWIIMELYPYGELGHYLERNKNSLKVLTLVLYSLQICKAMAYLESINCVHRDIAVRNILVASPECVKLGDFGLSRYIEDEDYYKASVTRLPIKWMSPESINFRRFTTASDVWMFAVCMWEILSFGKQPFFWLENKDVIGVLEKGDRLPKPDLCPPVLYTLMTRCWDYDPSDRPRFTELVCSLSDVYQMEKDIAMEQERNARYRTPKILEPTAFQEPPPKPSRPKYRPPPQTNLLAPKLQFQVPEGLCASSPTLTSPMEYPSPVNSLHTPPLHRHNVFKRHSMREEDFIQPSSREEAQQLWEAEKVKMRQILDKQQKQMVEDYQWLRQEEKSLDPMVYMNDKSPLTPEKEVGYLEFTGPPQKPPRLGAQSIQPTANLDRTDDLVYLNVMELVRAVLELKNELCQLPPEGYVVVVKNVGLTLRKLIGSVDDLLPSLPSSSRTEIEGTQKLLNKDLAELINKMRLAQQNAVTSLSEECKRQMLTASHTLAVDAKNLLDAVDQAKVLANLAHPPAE
Experimental: AlphaScreen assays were done using compounds dissolved in DMSO to a concentration of 20 mM. The compounds were diluted accordingly to the desired final concentrations in each sample well, using 1:3 serial dilution for a total of 8 concentration points. Plates were prepared such that each kinase reaction is 20 μl in 1× kinase buffer, 5% DMSO and 10 μM ATP. After incubation of the kinase reaction for 1 hour at room temperature, 5 μl of donor beads in stop buffer (50 mM EDTA in 1× kinase buffer) was added, the sample was mixed and incubated for 20 minutes at room temperature before adding 5 μl of acceptor beads in stop buffer. The samples were incubated for 60 minutes at room temperature and the signal per well was read on AlphaQuest reader.

Flt1 = biological target: T7, Flt1 (Homo sapiens, UniProt P17948); assay: AlphaScreen kinase assay, Flt1; conditions: read-out: IC50, activity toward kinase Flt1
T7 construct: P1826.pETN6 BI-PTP FLT1 M799-D1165-X WT; His6 (N); made in house; host or cells: E. coli (PTP1B co-expressed)
T7 sequence (P17948 with tags, fused parts or gaps): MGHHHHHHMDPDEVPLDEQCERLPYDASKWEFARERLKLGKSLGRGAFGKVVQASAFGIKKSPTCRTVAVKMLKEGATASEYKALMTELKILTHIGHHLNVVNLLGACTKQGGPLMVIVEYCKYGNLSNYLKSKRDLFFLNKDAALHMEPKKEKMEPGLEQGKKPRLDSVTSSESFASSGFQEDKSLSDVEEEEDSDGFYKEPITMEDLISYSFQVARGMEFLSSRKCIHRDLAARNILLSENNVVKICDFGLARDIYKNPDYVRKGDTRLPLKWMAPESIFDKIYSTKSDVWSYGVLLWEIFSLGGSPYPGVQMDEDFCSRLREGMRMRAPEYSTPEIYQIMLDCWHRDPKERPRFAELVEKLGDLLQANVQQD

Zap70 = biological target: T8, Zap70 (Homo sapiens, UniProt P43403); assay: AlphaScreen kinase assay, Zap70; conditions: read-out: IC50, activity toward kinase Zap70
T8 construct: P1868.pFastBac1 ZAP70 D327-G606 HIS, WT; His7 (HHHHHHH) (C); made in house
T8 sequence (P43403 with tags, fused parts or gaps): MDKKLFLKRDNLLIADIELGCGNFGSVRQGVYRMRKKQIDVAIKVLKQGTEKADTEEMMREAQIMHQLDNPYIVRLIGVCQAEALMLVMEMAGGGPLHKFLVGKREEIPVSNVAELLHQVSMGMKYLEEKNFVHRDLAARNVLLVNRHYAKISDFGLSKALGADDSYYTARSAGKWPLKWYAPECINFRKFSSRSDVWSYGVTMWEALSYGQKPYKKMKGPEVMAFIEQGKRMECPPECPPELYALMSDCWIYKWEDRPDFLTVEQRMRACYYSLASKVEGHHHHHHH
Method in brief: as §1

FGFR1 = biological target: T9, FGFR1 (Homo sapiens, UniProt P11362, C488A/C584S); assay: AlphaScreen kinase assay, FGFR1; conditions: read-out: IC50, activity toward kinase FGFR
T9 construct: P1351.pET N6 BI-PTP FGFR A458-E765-X C488A, C584S; made in house; host or cells: E. coli (PTP1B co-expressed)
T9 sequence (P11362 458-765 C488A/C584S): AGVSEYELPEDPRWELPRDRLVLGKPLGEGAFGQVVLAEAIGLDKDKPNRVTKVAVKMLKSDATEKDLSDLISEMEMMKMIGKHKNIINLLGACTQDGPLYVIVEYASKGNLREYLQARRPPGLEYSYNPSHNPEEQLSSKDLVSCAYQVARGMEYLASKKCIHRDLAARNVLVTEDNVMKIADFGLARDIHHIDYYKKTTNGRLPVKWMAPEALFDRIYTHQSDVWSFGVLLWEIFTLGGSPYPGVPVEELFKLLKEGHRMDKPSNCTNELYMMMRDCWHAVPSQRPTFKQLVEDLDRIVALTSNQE

Jnk3 = biological target: T10, Jnk3 (Homo sapiens, UniProt P53779); assay: AlphaScreen kinase assay, Jnk3; conditions: read-out: IC50, activity toward kinase Jnk3
T10 construct: purchased Upstate Biotechnology
T10 sequence (P53779 whole entry): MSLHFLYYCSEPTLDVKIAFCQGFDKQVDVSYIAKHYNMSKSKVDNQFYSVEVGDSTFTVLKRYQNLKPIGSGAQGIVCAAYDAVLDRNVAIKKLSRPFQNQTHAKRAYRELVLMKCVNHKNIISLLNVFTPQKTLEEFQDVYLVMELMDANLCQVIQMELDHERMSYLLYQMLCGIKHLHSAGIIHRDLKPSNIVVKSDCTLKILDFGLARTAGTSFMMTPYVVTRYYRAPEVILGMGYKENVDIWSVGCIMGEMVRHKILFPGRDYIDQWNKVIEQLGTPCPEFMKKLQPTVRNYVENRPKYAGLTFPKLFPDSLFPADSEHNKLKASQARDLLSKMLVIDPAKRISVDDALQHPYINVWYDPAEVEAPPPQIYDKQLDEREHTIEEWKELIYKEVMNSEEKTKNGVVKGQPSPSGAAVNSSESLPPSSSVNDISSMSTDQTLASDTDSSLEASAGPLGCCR

Ret = biological target: T11, Ret (Homo sapiens, UniProt P07949); assay: AlphaScreen kinase assay, Ret; conditions: read-out: IC50, activity toward kinase Ret
T11 construct: P1378.pET-SF BI-PTP RET H661-R1012 HIS; made in house
T11 sequence (P07949 with tags, fused parts or gaps): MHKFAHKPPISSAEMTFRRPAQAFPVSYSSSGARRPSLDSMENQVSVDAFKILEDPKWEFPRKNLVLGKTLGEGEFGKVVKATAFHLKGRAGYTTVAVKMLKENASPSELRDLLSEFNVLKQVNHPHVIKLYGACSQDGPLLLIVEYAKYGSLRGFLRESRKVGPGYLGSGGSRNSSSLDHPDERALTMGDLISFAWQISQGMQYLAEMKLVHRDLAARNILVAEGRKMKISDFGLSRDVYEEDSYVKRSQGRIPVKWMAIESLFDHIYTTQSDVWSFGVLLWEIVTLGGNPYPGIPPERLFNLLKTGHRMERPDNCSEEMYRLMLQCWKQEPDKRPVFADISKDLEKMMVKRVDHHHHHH

Fak = biological target: T12, Fak (Homo sapiens, UniProt Q05397); assay: AlphaScreen kinase assay, Fak; conditions: read-out: IC50, activity toward kinase Fak
T12 construct: P1358.pFastBacHtb FAK S411-Q686-X; His6 with pFastBacHTb leader (TEV site) (N); made in house; host or cells: Sf9 (baculovirus)
T12 sequence (Q05397 411-686): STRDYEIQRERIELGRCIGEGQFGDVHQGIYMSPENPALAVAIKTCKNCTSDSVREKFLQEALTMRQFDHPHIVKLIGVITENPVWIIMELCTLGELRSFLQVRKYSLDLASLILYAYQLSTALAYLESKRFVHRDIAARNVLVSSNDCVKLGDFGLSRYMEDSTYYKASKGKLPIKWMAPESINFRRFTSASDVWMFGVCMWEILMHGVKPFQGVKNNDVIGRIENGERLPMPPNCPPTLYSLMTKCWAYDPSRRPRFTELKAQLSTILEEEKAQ

Measured: IC50

O=S(=O)(NCc1c[nH]c2ncccc12)c1ccsc1 [Compound P-0320]
not listed: Fak
≤ 10 µM: all other assays above

CS(=O)(=O)CCNC(=O)c1ccc(S(=O)(=O)NCc2c[nH]c3ncccc23)cc1 [Compound P-0675]
≤ 10 µM: Abl | Met | Fak | Zap70 | Jnk3 | Ret
